# Measured values reported in patent US20250255850A1, “PHARMACEUTICAL COMPOSITIONS FOR TREATING NEUROLOGICAL CONDITIONS” (YISSUM RESEARCH DEVELOPMENT COMPANY OF THE HEBREW …, priority 2021, published 2025).
# Tests used:
# [1] = tested on: C57BL/6 wild-type mice; assay: Marble burying test, SNAP-treated wild-type mice; assay type: in vivo, mouse; conditions: SNAP IP 20 mg/kg/day for 10 days; vs WT
# Procedure: (§1) Behavioral testing started after 2 hours of treatment.
# Marble Burying test (see, FIG. 4D): The marble-burying assay is a tool for assessing either anxiety-like and/or repetitive-like behaviors in mice. Subjects were tested in a regular clean cage (28 cm long×18 cm wide×12 cm high) with 3 cm of fresh bedding. The subject was first placed in the empty cage for a 5-min habituation. It was then temporary placed in an empty clean cage while 20 dark blue glass marbles (15 mm in diameter) were positioned over the bedding equidistant in a 4×5 arrangement to cover the whole cage surface. The subject was then returned in the test cage and allowed to explore and bury the marbles during a 15-min session that was videotaped. At the end of the session the subject was removed and the number of marbles buried (50% marble covered by bedding material) was recorded.
# A marble burying test (as shown in FIG. 4D) was utilized as an indication for repetitive behaviors and restricted interests.
# [2] = tested on: C57BL/6 wild-type mice; assay: Elevated plus maze test, SNAP-treated wild-type mice; assay type: in vivo, mouse
# Procedure: as §1
# Elevated plus maze test (see, FIG. 4C): The elevated plus-maze consisted of four arms (30×5 cm), two open, and the other two closed. The platform was made of white plexiglass. The apparatus was elevated 45 cm above the floor. The test, described in, was initiated by placing the mouse on the central platform of the maze, facing one of the open arms, and letting it move freely. Each session lasted 5 min. The time spent in the close and open arms was recorded.
# An elevated plus maze test (see, FIG. 4C) was performed to evaluate the anxiety-like behaviors among the mice, typically the anxiety quantified as the time spent in the closed arms.
# [3] = tested on: C57BL/6 wild-type mice; assay: Three-chambered sociability test, SNAP-treated wild-type mice; assay type: in vivo, mouse
# Procedure: as §1
# Three-chambered sociability test (see, FIG. 4B): Sociability and preference for social novelty and social recognition were tested in a three-chambered apparatus. The subjected mouse was first placed in the central, neutral chamber and allowed to explore for 10 minutes with all the doors closed. Next, doors were opened and the mouse was allowed to freely explore the other two empty chambers (1 and 2) for an additional 10 minutes. Lack of side preference was confirmed during this habituation.
# Two cylindrical wire cages were placed, one in chamber 1 and the other in chamber 2. For the sociability test, the test animal was introduced to the middle chamber and allowed to adjust for 5 minutes. Then, an unfamiliar mouse was introduced into a wire cage in one of the side-chambers, and the other side-chamber remained empty. The time spent by the test mouse exploring the wire cage with an unfamiliar mouse inside was recorded for 5 minutes.
# Next, to examine social memory, novel mice is introduced to the empty cage and the tested mice is examined whether they are interested in the novel mice compared to the familiar.
# S-nitroso-N-acetylpenicillamines (SNAP), is an NO donor that increases the NO availability, subsequently leading to nitrosative stress and aberrant SNO signaling. […] To examine the potential effect of SNAP administration on mice behaviors, a novel object recognition test (NOR) and sociability test were performed (See, FIGS. 4A-B), and the obtained data are presented in FIGS. 2A-B, respectively.
# A three-chamber sociability test was conducted as in Example 2 (see also FIG. 4B), to evaluate the interest of the mice to engage in social interaction with a stranger mouse. Generally, the mice prefer to spend more time with another mouse (sociability), and the mice have the tendency to investigate a novel intruder more than a familiar one (social novelty). […]
# [4] = Solubility in DMSO
# [5] = tested on: C57BL/6 wild-type mice; assay: Novel object recognition test (NOR), SNAP-treated wild-type mice; assay type: in vivo, mouse
# Procedure: as §1
# Novel object recognition (see, FIG. 4A): The novel object test for object recognition and memory takes place in a white open field arena (45×45 cm). The test involves a set of two unique novel objects, each about the size of a mouse, constructed from two different materials and non-uniform in shape. The test consisted of one 10-minute habituation session, a 5-minute familiarization session and a 5-minute recognition test, each video tracked (Noldus Ethovision). During the habituation, animals were allowed to freely explore an empty open field. At the end of the session, they were shifted from the open field to a place in a temporary clean holding cage for about 2 minutes. Two identical objects were placed on the median line at 10 cm from each wall and the animal was returned to the open field and allowed to explore the objects for 5 minutes before being returned to its home cage. Next day, one familiar object and one novel object were placed in the open field to the location where the identical objects were placed during the familiarization session and the mouse was allowed to explore them for a 5-minute recognition test. […] Familiarization and recognition sessions were scored for total time spent investigating each object, the number of object interactions and the latency of the first object interaction. […]
# [6] = tested on: SHSY-5Y cells; assay: Immunofluorescence of 3-nitrotyrosine and synaptophysin in SHANK3-silenced SHSY-5Y cells; assay type: cell-based, human
# Procedure: A cell culture model for ASD was developed by silencing SHANK3 with an siRNA (5-3 RNA)-CGAUGAUAAGCAGUUUGCAAAGCUU (SEQ ID NO: 3) in the neuronal cell line SHSY-5Y cells, followed by silencing with of nNOS using the following RNA (5-3) CCUUGUCCAACAUGCUCCUAGAGAU (SEQ ID NO: 4).
# SHSY-5Y Cells (with or without treatment) were fixed post treatment in 4% paraformaldehyde, incubated with the Primary rabbit MAP2+ primary mouse monoclonal 3-nitrotyrosine (FIGS. 9A-B) and with Primary rabbit monoclonal synaptophysin+primary mouse Map2 (FIGS. 9C-D). Thereafter, cells were incubated with anti-mouse secondary Alexa fluor488 (green)/594 (red), and anti-rabbit secondary Alexa fluor 488 (green)/594 (red), conjugated secondary antibodies. After washing, cells were mounted with DAPI (Blue). The images were acquired using a confocal microscope. Each group contained nine independent sets of experiments (initial cell seed number—about 10^6).
# To support the effect of nucleic acid silencing on a SHANK3 silenced background, the present inventors applied siRNA to nNOS on […] SHSY-5Y Cells.
# [7] = SNAP IP 20 mg/kg/day for 7 days, wild-type mice vs control group
# [8] = SNAP IP 20 mg/kg/day for 10 days, C57BL/6 WT mice
substance,measurement,setting,value
S-nitroso-N-acetylpenicillamines [SNAP],number of marbles buried,[1],buried significantly less marbles
same,time in the closed arms (elevated plus maze),"[2]; SNAP IP 20 mg/kg/day for 10 days, vs WT group",spent significantly more time in the closed arms compared to WT group
same,time spent in the open arms (elevated plus maze),"[2]; SNAP i.p. 20 mg/kg daily for 10 days, vs WT",significantly decreased time in the open arms
same,preference to engage in social interaction (sociability test),[3]; [7],did not exhibit any preference to engage in social interaction
same,"preference for novel mouse (S2) vs familiar (S1) (second session, social novelty)",[3]; [8],did not exhibit any significant preference to engage in social interaction with the mice
same,"time interacting with stranger mouse vs empty cage (first session, sociability)",[3]; [8],spent more time interacting with the stranger mouse than with the empty cage
same,solubility in DMSO,[4],20 mg/mL
same,preference for the novel object (NOR test),[5]; [7],failed to display a preference for the novel object
same,preference for the novel object (NOR test),[5]; [8],failed to display a preference for the novel object
"SHANK3 si-RNA: siRNA CGAUGAUAAGCAGUUUGCAAAGCUU (SEQ ID NO: 3) silencing SHANK3 (CGAUGAUAAGCAGUUUGCAAAGCUU; listed as RNA, chemistry not given here)",synaptophysin expression (immunofluorescence),[6]; SHSY-5Y cells treated with SHANK3 si-RNA alone,downregulated
"siRNA to nNOS: RNA (5-3) CCUUGUCCAACAUGCUCCUAGAGAU (SEQ ID NO: 4) silencing nNOS (CCUUGUCCAACAUGCUCCUAGAGAU; listed as RNA, chemistry not given here)",synaptophysin protein expression (immunofluorescence),[6]; nNOS knockdown in the SHANK3 si-RNA group (double knockdown),recovery in synaptophysin protein expression
same,nitrotyrosine production (immunofluorescence),[6]; nNOS silencing in the SHANK3 si-RNA group (double knockdown),reduction in nitrotyrosine production
